# Reference: patent publication US11466013B2 (Betta Pharmaceuticals Co., LTD, priority 2018, dated 2022)
# Columns and labels:
# ERK1 = ERK1 (Homo sapiens, UniProt P27361); experiment: Kinase assay (Caliper, FAM-labeled peptide), ERK1; assay type: biochemical
# Method: (§1) The compound was diluted to the desired concentration with DMSO, transferred 100 μL to a 96-well plate, and performed a gradient dilution 10 μL of compound from each well was taken and mixed with 90 μL of kinase buffer, and then transferred 5 μL from each well to a 384-well plate. Kinase and FAM-labeled peptide and ATP were added to 1× kinase alkaline buffer to obtain 2.5× enzyme solution and 2.5× peptide solution, 10 μL of 2.5× enzyme solution was added to the 384-well assay plate. After incubating for 10 minutes at room temperature, 10 μL of 2.5× peptide solution was added to the 384-well plate. After reacting for a specific time at […], 25 μL of termination buffer was added to stop reaction. After reading the collected data on Caliper, the data was converted to inhibition percentage. Inhibition percentage=(maximum value−conversion value)/(maximum value−minimum value)*100.
# (§2) The “maximum” is the DMSO control, the “minimum” indicates the low control.
# (§3) Graphpad Prism software was used to perform curve fitting and obtain IC50 value.
# ERK2 = ERK2 (Homo sapiens, UniProt P28482); experiment: Kinase assay (Caliper, FAM-labeled peptide), ERK2; assay type: biochemical
# Method: as §1, §2, §3
# Sequence of ERK2 (P28482 whole entry): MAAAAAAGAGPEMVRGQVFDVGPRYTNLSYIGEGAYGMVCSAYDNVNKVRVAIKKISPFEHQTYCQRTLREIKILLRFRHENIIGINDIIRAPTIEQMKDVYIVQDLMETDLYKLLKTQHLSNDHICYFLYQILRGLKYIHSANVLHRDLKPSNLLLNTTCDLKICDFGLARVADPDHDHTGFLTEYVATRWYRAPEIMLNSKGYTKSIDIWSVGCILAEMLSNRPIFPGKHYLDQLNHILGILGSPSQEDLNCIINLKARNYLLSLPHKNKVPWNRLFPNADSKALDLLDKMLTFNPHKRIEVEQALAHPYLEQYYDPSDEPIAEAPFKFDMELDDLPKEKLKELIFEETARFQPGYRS
# Sequence of ERK1 (P27361 whole entry): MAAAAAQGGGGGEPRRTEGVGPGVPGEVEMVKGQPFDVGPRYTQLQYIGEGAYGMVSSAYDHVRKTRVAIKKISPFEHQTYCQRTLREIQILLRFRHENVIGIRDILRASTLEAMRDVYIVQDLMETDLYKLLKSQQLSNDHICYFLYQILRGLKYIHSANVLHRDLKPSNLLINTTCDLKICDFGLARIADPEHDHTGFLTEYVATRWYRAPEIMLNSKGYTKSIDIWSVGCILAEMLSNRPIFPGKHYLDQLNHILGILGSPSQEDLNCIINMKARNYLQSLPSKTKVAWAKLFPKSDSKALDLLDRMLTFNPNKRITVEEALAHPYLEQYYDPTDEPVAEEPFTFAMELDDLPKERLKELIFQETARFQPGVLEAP
Structure (SMILES),IC50 (ERK1),IC50 (ERK2)
"COC[C@H]1Cn2cc(-c3ccnc(NC4CCOCC4)c3)cc2C(=O)N1Cc1cc(F)ccc1CO [Example 67, (R)-2-(5-fluoro-2-(hydroxymethyl)benzyl)-3-(methoxymethyl)-7-(2-((tetrahydro-2h-pyran-4-yl)amino)pyridine-4-yl)-3,4-dihydropyrrolo [1,2-a]pyrazine-1(2H)-one]",1.6 nM,1.2 nM
"COC[C@H]1Cn2cc(-c3cc(Nc4cc(C)on4)ncc3Cl)cc2C(=O)N1Cc1cc(F)ccc1CO [Example 80, (R)-7-(5-chloro-2-((5-Methylisoxazole-3-yl)amino)pyridine-4-yl)-2-(5-fluoro-2-(hydroxymethyl)benzyl)-3-(methoxymethyl)-3,4-dihydropyrrolo[1,2-a] pyrazine-1(2H)-one]",0.73 nM,0.68 nM
"COC[C@H]1Cn2cc(-c3cc(Nc4c(C)noc4C)ncc3Cl)cc2C(=O)N1Cc1cc(F)ccc1CO [Example 81, (R)-7-(5-chloro-2-((3,5-dimethyl-isoxazole-4-yl)amino)pyridine-4-yl)-2-(5-fluoro-2-(hydroxymethyl)benzyl)-3-(methoxymethyl)-3,4-dihydropyrrolo[1,2-a] pyrazine-1(2H)-one]",1.1 nM,1.5 nM
"COC[C@H]1Cn2cc(-c3cc(Nc4ccn(CC(F)F)n4)ncc3Cl)cc2C(=O)N1Cc1cc(F)ccc1CO [Example 114, (R)-7-(5-chloro-2-((1-(2,2-difluoroethyl)-1h-pyrazole-3-yl)amino)pyridine-4-yl)-2-(5-fluoro-2-(hydroxymethyl)benzyl)-3-(methoxymethyl)-3,4-dihydropyrrolo[1,2-a] pyrazine-1(2H)-one]",1.3 nM,1.3 nM
"COC[C@H]1Cn2cc(-c3cc(NC(=O)c4csc(C)n4)ncc3Cl)cc2C(=O)N1Cc1cc(F)ccc1CO [Example 117, (R)-N-(5-chloro-4-(2-(5-fluoro-2-(hydroxymethyl)benzyl)-3-(methoxymethyl)-1-oxo-1,2,3,4-tetrahydropyrrolo [1,2-a]pyrazin-7-yl)pyridine-2-yl)-2-methylthiazol-4-formamide]",1.2 nM,1 nM
"Cc1cnc(NC(C)CO)nc1-c1cc2n(c1)CCN(Cc1cc(F)ccc1CO)C2=O (stereo not drawn) [Example 121, 2-(5-fluoro-2-(hydroxymethyl)benzyl)-7-(2-((1-hydroxypropyl-2-yl)amino)-5-methylpyrimidin-4-yl)-3,4-dihydropyrrolo[1,2-a] pyrazine-1(2H)-one]",0.2 nM,0.2 nM
"Cc1cnc(NC2COC2)nc1-c1c[nH]c(C(=O)NCc2cc(F)ccc2CO)c1 [Example 122, N-(5-fluoro-2-(hydroxymethyl)benzyl)-4-(5-methyl-2-(oxacyclobutane-3-ylamino)pyrimidin-4-yl)-1h-pyrrole-2-formamide]",0.65 nM,0.71 nM
"Cc1cnc(NC(C)C)nc1-c1cc2n(c1)CCN(Cc1cc(F)ccc1CO)C2=O [Example 123, 2-(5-fluoro-2-(hydroxymethyl)benzyl)-7-(2-(isopropylamino)-5-methylpyrimidin-4-yl)-3,4-dihydropyrrolo[1,2-a] pyrazine-1(2H)-one]",0.53 nM,0.44 nM
"O=C1c2cc(-c3cc(NCC(F)(F)F)ncc3Cl)cn2CCN1Cc1cc(F)ccc1CO [Example 124, 7-(5-chloro-2-((2,2,2-trifluoroethyl)amino)pyridine-4-yl)-2-(5-fluoro-2-(hydroxymethyl)benzyl)-3,4-dihydropyrrolo[1,2-a] pyrazine-1(2H)-one]",0.79 nM,0.98 nM
"COC[C@H]1Cn2cc(-c3ccnc(NC(C)C)n3)cc2C(=O)N1Cc1cc(F)ccc1CO [Example 127, (R)-2-(5-fluoro-2-(hydroxymethyl)benzyl)-7-(2-(isopropylamino)pyrimidin-4-yl)-3-(methoxymethyl)-3.4-dihydropyrrolo[1,2-a] pyrazine-1(2H)-one]",1.6 nM,0.35 nM
"O=C1c2cc(-c3cc(NC4CC(F)(F)C4)ncc3Cl)cn2CCN1Cc1cc(F)ccc1CO [Example 128, 7-(5-chloro-2-((3,3-difluorocyclobutyl)amino)pyridine-4-yl)-2-(5-fluoro-2 (hydroxymethyl)benzyl)-3,4-dihydropyrrolo[1,2-a] pyrazine-1(2H)-one]",0.65 nM,0.89 nM
"CCNc1ncc(Cl)c(-c2cc3n(c2)C[C@H](COC)N(Cc2cc(F)ccc2CO)C3=O)n1 [Example 131, (R)-7-(5-chloro-2-(ethylamino)pyrimidin-4-yl)-2-(5-fluoro-2-(hydroxymethyl)benzyl)-3-(methoxymethyl)-3,4-dihydropyrrolo[1,2-a] pyrazine-1(2H)-one]",0.83 nM,1.4 nM
"CCc1ccccc1Nc1ncc(C)c(-c2cc3n(c2)CCN(Cc2cc(F)ccc2CO)C3=O)n1 [Example 132, 7-(2-((2-Ethylphenyl)amino)-5-methylpyrimidin-4-yl)-2-(5-fluoro-2-(hydroxymethyl)benzyl)-3,4-dihydropyrrolo[1,2-a] pyrazine-1(2H)-one]",0.8 nM,0.9 nM
"Cc1cnc(Nc2cccc3c2OCO3)nc1-c1cc2n(c1)CCN(Cc1cc(F)ccc1CO)C2=O [Example 133, 7-(2-(benzo[D][1,3]dioxocyclopentene-4-ylamino)-5-methylpyrimidin-4-yl)-2-(5-fluoro-2-(hydroxymethyl)benzyl)-3,4-dihydropyrrolo[1,2-a] pyrazine-1(2H)-one]",0.7 nM,0.7 nM
"Cc1cnc(Nc2ccc3c(cnn3C)c2)nc1-c1cc2n(c1)CCN(Cc1cc(F)ccc1CO)C2=O [Example 134, 2-(5-fluoro-2-(hydroxymethyl)benzyl)-7-(5-methyl-2-((1-methyl-1h-indazole-5-yl)amino)pyrimidin-4-yl)-3,4-dihydropyrrolo[1,2-a] pyrazine-1(2H)-one]",0.5 nM,0.5 nM

# Continued, values first:
IC50 (ERK1),IC50 (ERK2),Structure (SMILES)
1.8 nM,2 nM,"COC[C@H]1Cn2cc(-c3cc(NC4CCC4)ncc3Cl)cc2C(=O)N1Cc1cc(F)ccc1CO [Example 70, (R)-7-(5-chloro-2-(cyclobutylamino)pyridin-4-yl)-2-(5-fluoro-2-(hydroxymethyl)benzyl)-3-(methoxymethyl)-3,4-dihydropyrrolo[1,2-a] pyrazine-1(2H)-one]"
3.1 nM,0.9 nM,"COCC1Cn2cc(-c3cc(NC4CCN(C(C)C)CC4)ncc3Cl)cc2C(=O)N1Cc1cc(F)ccc1CO (stereo not drawn) [Example 73, 7-(5-chloro-2-((1-isopropylpiperidin-4-yl)amino)pyridine-4-yl)-2-(5-fluoro-2-(hydroxymethyl)benzyl)-3-(methoxymethyl)-3,4-dihydropyrrolo[1,2-a] pyrazine-1(2H)-one]"
1.2 nM,1.3 nM,"COC[C@H]1Cn2cc(-c3cc(NC4CC4)ncc3Cl)cc2C(=O)N1Cc1cc(F)ccc1CO [Example 74, (R)-7-(5-chloro-2-(cyclopropylamino)pyridin-4-yl)-2-(5-fluoro-2-(hydroxymethyl)-benzyl)-3-(methoxymethyl)-3,4-dihydropyrrolo[1,2-a] pyrazine-1(2H)-one]"
1.1 nM,1.5 nM,"COC[C@H]1Cn2cc(-c3cc(NC4CCCC4)ncc3Cl)cc2C(=O)N1Cc1cc(F)ccc1CO [Example 77, (R)-7-(5-chloro-2-(cyclopentylamino)pyridin-4-yl)-2-(5-fluoro-2-(hydroxymethyl)benzyl)-3-(methoxymethyl)-3,4-dihydropyrrolo[1,2-a] pyrazine-1(2H)-one]"
0.87 nM,1.5 nM,"COC[C@H]1Cn2cc(-c3cc(NC4CCOC(C)(C)C4)ncc3Cl)cc2C(=O)N1Cc1cc(F)ccc1CO (stereo partly drawn) [Example 78, (3R)-7-(5-chloro-2-((2,2-dimethyltetrahydro-2h-pyran-4-yl)amino)pyridine-4-yl)-2-(5-fluoro-2-(hydroxymethyl)benzyl)-3-(methoxymethyl)-3,4-dihydropyrrolo[1,2-a] pyrazine-1(2H)-one]"
0.36 nM,0.39 nM,"COC[C@H]1Cn2cc(-c3cc(NC4COC(C)(C)C4)ncc3Cl)cc2C(=O)N1Cc1cc(F)ccc1CO (stereo partly drawn) [Example 79, (3R)-7-(5-chloro-2-((5,5-dimethyltetrahydrofuran-3-yl)amino)pyridine-4-yl)-2-(5-fluoro-2-(hydroxymethyl)benzyl)-3-(methoxymethyl)-3,4-dihydropyrrolo[1,2-a] pyrazine-1(2H)-one]"
0.6 nM,0.7 nM,"COCC1Cn2cc(-c3cc(NC4CCN(C(C)=O)CC4)ncc3Cl)cc2C(=O)N1Cc1cc(F)ccc1CO (stereo not drawn) [Example 110, 7-(2-((1-acetylpiperidin-4-yl)amino)-5-chloropyridine-4-yl)-2-(5-fluoro-2-(hydroxymethyl)benzyl)-3-(methoxymethyl)-3,4-dihydropyrrolo[1,2-a] pyrazine-1(2H)-one]"
0.9 nM,0.9 nM,"COC[C@H]1Cn2cc(-c3cc(NC4CCC(OC)CC4)ncc3Cl)cc2C(=O)N1Cc1cc(F)ccc1CO (stereo partly drawn) [Example 111, (R)-7-(5-chloro-2-((4-methoxycyclohexyl)amino)pyridine-4-yl)-2-(5-fluoro-2-(hydroxymethyl)benzyl)-3-(methoxymethyl)-3,4-dihydropyrrolo[1,2-a] pyrazine-1(2H)-one]"
0.4 nM,1 nM,"COC[C@H]1Cn2cc(-c3cc(NC(C)=O)ncc3Cl)cc2C(=O)N1Cc1cc(F)ccc1CO [Example 112, (R)-N-(5-chloro-4-(2-(5-fluoro-2-(hydroxymethyl)benzyl)-3-(methoxymethyl)-1-oxo-1,2,3,4-tetrahydropyrrolo [1,2-a]pyrazin-7-yl)pyridine-2-yl) acetamide]"
